Experimental data published in ChEMBL document CHEMBL4118122, “Identification and biological evaluation of thiazole-based inverse agonists of RORγt” (Bioorg Med Chem Lett, 2018).
pKd: −log10 of the molar value. ≈ marks a conversion by molar mass, not a printed value.

Assays:
PXR (NR1I2) [1] = biological target: T1, PXR (NR1I2) (Homo sapiens, UniProt O75469); assay: […] at PXR LBD (unknown origin) expressed in HEK293 cells […] at 1 uM after 16 hrs by luciferase reporter gene assay relative to rifampicin; type: ADME, cell-based; details: HEK293 cells expressing PXR LBD, read-out: Efficacy
T1 sequence (O75469 whole entry): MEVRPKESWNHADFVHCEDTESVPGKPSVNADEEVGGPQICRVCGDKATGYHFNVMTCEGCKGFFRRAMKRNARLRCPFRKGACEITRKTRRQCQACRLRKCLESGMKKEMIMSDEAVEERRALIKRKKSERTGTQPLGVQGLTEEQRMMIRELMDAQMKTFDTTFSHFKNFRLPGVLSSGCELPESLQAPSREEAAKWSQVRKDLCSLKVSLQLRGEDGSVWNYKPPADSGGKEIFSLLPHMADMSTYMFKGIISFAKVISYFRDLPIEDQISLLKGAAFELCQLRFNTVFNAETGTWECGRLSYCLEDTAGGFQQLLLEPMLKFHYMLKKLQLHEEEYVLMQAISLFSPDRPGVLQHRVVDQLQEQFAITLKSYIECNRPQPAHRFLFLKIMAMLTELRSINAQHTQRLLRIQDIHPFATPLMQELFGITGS

[2] = Thermodynamic solubility of the compound in 30 mM phosphate buffer at 10 mM at pH 7 after 2 to 5 days by UV-HPLC analysis; type: physicochemical; details: read-out: Therm_solubility
[3] = Thermodynamic solubility of the compound in fasted state simulated intestinal […] after 2 to 5 days by UV-HPLC analysis; type: physicochemical; details: read-out: Therm_solubility
PXR (NR1I2) [4] = biological target: T1, PXR (NR1I2); assay: […] at PXR LBD (unknown origin) expressed in HEK293 cells […] at 5 uM after 16 hrs by luciferase reporter gene assay relative to rifampicin; type: ADME, cell-based; details: HEK293 cells expressing PXR LBD, read-out: Efficacy
[5] = Half life in rat microsomes; type: ADME, Microsome
[6] = Half life in human microsomes; type: ADME, Microsome
Cytochrome P450 1A2 = biological target: T2, Cytochrome P450 1A2 (Homo sapiens, UniProt P05177); assay: Inhibition of CYP1A2 (unknown origin); type: ADME
T2 sequence (P05177 whole entry): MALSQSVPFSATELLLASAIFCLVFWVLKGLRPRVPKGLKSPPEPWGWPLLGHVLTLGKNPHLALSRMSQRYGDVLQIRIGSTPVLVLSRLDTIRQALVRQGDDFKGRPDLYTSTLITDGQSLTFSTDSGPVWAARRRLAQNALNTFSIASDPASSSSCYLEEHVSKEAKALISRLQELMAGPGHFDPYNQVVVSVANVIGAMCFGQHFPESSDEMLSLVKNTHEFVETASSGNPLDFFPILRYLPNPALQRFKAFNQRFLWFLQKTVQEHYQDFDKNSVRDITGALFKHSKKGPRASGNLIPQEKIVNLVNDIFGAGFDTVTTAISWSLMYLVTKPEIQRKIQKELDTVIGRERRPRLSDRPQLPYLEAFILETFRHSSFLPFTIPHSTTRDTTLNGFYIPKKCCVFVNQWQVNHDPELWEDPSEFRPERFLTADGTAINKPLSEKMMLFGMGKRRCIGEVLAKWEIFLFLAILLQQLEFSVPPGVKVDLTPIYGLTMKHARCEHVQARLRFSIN

Cytochrome P450 2C19 = Cytochrome P450 2C19 (Homo sapiens, UniProt P33261); assay: Inhibition of CYP2C19 (unknown origin); type: ADME
Cytochrome P450 2C8 = biological target: T3, Cytochrome P450 2C8 (Homo sapiens, UniProt P10632); assay: Inhibition of CYP2C8 (unknown origin); type: ADME
T3 sequence (P10632 whole entry): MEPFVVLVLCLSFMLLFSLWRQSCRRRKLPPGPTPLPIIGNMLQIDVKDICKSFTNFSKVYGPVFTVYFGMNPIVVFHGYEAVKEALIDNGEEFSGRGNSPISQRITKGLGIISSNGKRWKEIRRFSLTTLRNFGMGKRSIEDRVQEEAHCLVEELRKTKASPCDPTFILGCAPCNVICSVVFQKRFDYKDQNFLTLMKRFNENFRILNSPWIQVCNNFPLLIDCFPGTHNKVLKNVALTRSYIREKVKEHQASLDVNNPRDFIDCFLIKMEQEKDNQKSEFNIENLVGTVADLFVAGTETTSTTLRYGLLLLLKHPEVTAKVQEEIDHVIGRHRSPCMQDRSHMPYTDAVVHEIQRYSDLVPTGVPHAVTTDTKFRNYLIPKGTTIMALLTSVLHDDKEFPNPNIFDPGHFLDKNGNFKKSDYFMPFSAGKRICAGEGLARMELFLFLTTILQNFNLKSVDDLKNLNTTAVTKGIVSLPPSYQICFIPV

Cytochrome P450 2C9 = Cytochrome P450 2C9 (Homo sapiens, UniProt P11712); assay: Inhibition of CYP2C9 (unknown origin); type: ADME
Cytochrome P450 2D6 = Cytochrome P450 2D6 (Homo sapiens, UniProt P10635); assay: Inhibition of CYP2D6 (unknown origin); type: ADME
Cytochrome P450 3A4 = Cytochrome P450 3A4 (Homo sapiens, UniProt P08684); assay: Inhibition of CYP3A4 (unknown origin); type: ADME
[7] = biological target: T4, Nuclear receptor ROR-beta (Homo sapiens, UniProt Q92753); assay: Binding affinity to recombinant human RORbeta LBD (201 to 452 residues) expressed in Escherichia coli BL21 (DE3) GOLD by 1,8-ANS dye-based thermofluor assay
T4 sequence (Q92753 whole entry): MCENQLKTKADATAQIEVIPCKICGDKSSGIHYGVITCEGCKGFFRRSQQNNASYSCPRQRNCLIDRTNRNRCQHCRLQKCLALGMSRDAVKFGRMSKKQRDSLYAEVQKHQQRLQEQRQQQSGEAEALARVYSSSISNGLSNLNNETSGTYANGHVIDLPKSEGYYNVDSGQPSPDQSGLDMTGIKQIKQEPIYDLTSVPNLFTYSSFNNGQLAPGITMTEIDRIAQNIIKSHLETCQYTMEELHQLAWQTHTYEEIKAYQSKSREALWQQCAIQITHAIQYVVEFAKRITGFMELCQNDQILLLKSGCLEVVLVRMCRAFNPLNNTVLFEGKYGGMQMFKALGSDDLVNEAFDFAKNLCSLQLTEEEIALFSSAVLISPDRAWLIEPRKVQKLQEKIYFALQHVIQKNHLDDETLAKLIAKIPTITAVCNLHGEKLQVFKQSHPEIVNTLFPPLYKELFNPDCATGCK

[8] = Clearance in Sprague-Dawley rat at 1 mg/kg, iv; type: ADME, organism-based; details: in vivo
[9] = Volume of distribution at steady state in Sprague-Dawley rat at 1 mg/kg, iv; type: ADME, organism-based; details: in vivo, read-out: Vdss
[10] = AUC (0 to infinity) in Sprague-Dawley rat at 1 mg/kg, iv; type: ADME, organism-based; parameters: dose 1 mg/kg, time infinity, route intravenous; details: in vivo
[11] = Initial plasma concentration in Sprague-Dawley rat at 1 mg/kg, iv; type: ADME, organism-based
[12] = Half life in Sprague-Dawley rat at 1 mg/kg, iv; type: ADME, organism-based; details: in vivo
[13] = Cmax in Sprague-Dawley rat at 5 mg/kg, po; type: ADME, organism-based; parameters: dose 5 mg/kg, route oral; details: in vivo
[14] = Tmax in Sprague-Dawley rat at 5 mg/kg, po; type: ADME, organism-based; details: in vivo
[15] = AUC (0 to infinity) in Sprague-Dawley rat at 5 mg/kg, po; type: ADME, organism-based; parameters: dose 5 mg/kg, route oral, time infinity; details: in vivo
[16] = Terminal half life in Sprague-Dawley rat at 5 mg/kg, po; type: ADME, organism-based; details: in vivo, read-out: beta t1/2 (converted)
[17] = Oral bioavailability in Sprague-Dawley rat at 5 mg/kg; type: ADME, organism-based; details: in vivo
PXR (NR1I2) [18] = biological target: T1, PXR (NR1I2); assay: […] at PXR LBD (unknown origin) expressed in HEK293 cells […] at 10 uM after 16 hrs by luciferase reporter gene assay relative to rifampicin; type: ADME, cell-based; details: HEK293 cells expressing PXR LBD, read-out: Efficacy

Chain of Cytochrome P450 2D6 (P10635 whole entry): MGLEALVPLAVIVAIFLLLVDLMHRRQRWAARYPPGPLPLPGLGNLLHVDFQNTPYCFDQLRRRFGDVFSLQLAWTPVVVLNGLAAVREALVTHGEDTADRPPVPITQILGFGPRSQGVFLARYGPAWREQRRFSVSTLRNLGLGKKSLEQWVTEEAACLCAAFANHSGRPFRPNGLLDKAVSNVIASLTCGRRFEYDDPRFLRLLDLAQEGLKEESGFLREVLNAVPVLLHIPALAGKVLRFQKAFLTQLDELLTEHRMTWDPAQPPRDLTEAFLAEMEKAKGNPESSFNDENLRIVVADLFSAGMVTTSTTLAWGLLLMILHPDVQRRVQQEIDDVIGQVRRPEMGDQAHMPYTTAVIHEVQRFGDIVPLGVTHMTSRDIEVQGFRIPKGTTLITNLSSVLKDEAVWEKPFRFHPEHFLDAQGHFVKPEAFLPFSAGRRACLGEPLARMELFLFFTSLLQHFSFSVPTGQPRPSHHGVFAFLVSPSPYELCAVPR
Chain of Cytochrome P450 2C9 (P11712 whole entry): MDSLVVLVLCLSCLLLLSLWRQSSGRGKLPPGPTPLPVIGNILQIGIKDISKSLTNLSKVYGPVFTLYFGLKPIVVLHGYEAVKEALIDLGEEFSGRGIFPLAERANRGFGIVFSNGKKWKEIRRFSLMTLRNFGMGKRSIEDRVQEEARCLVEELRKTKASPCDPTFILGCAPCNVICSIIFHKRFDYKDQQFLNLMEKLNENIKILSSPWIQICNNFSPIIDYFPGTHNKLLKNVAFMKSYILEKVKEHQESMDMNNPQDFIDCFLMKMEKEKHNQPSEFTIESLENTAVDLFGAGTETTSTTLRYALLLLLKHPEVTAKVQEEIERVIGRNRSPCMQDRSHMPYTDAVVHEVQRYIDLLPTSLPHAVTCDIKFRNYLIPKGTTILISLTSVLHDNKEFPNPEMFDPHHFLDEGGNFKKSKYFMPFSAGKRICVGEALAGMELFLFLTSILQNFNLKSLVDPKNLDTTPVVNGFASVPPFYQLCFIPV
Chain of Cytochrome P450 2C19 (P33261 whole entry): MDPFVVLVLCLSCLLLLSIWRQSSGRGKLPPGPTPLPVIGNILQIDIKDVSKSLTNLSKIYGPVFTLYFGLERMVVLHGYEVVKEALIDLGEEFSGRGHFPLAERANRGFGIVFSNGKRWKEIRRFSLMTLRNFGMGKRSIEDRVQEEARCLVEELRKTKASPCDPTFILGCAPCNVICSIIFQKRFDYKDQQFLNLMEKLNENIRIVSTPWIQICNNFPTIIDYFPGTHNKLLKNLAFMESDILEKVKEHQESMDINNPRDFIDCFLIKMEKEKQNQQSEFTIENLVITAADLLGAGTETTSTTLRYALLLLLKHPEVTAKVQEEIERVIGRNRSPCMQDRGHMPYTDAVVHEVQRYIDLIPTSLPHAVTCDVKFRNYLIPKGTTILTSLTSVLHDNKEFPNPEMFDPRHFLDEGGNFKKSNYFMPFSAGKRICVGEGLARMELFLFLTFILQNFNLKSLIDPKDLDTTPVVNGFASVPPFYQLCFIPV
Chain of Cytochrome P450 3A4 (P08684 whole entry, the tested form may be a part): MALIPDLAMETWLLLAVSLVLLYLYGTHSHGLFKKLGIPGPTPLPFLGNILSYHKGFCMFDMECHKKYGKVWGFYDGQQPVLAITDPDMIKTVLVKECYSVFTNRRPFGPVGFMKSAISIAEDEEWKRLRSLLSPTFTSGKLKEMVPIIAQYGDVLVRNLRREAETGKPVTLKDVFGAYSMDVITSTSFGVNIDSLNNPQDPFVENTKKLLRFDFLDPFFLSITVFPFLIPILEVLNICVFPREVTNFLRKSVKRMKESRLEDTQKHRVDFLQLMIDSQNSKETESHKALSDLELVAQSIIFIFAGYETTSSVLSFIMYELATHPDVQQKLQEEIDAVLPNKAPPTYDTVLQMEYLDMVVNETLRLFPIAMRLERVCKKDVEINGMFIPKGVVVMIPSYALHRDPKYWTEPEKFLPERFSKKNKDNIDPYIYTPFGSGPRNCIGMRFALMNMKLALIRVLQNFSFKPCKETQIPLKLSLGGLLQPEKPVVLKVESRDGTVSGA

| Emax at 16 h, 1 µM (PXR (NR1I2) [1]) [%] | solubility thermodynamic at 10000 µM [2] [µM] | solubility thermodynamic [3] [µM] | Emax at 16 h, 5 µM (PXR (NR1I2) [4]) [%] | half-life [5] [h] | half-life [6] [h] | INH (Cytochrome P450 1A2) [µM] | INH (Cytochrome P450 2C19) [µM] | INH (Cytochrome P450 2C8) [µM] | INH (Cytochrome P450 2C9) [µM] | INH (Cytochrome P450 2D6) [µM] | INH (Cytochrome P450 3A4) [µM] | pKd [7] | clearance [8] [mL/min/kg] | Vd [9] [L/kg] | AUC(0-inf) [10] [ng·h/mL] | C0 [11] [ng/mL] | half-life [12] [h] | Cmax [13] [ng/mL] | Tmax [14] [h] | SMILES | also measured |
| --- | --- | --- | --- | --- | --- | --- | --- | --- | --- | --- | --- | --- | --- | --- | --- | --- | --- | --- | --- | --- | --- |
| 66 | 11 (≈ 6.65 µg/mL) | > 400 | 113 | 1.42 | 1.88 | > 10 | > 10 | 6.2 | 7.6 | > 10 | > 10 |  |  |  |  |  |  |  |  | CC(C)NS(=O)(=O)c1ccc(-c2sc(C(=O)N[C@H]3C[C@H](C(=O)O)C3)nc2CC2CCCCC2)c(C(F)F)c1Cl |  |
| 86 | < 1 | 50 (≈ 30.7 µg/mL) |  | 0.433 | 0.617 | > 10 | > 10 | 4 | 8.7 | > 10 | > 10 |  |  |  |  |  |  |  |  | Cc1c(S(=O)(=O)NC(C)(C)C)ccc(-c2sc(C(=O)N[C@H]3C[C@H](C(=O)O)C3)nc2CC2CCCCC2)c1OC(F)F | Emax at 16 h, 10 µM (PXR (NR1I2) [18]): 173% |
|  | < 4 | > 400 |  | 2.33 | > 3 | > 10 | > 10 | 3.4 | > 10 | > 10 | > 10 |  |  |  |  |  |  |  |  | CC(C)(C)NS(=O)(=O)c1ccc(-c2sc(C(=O)N[C@H]3C[C@H](C(=O)O)C3)nc2CC2CCCCC2)c(C(F)(F)F)c1 |  |

More lines, now with the values behind:

| SMILES | Emax at 16 h, 1 µM (PXR (NR1I2) [1]) [%] | solubility thermodynamic at 10000 µM [2] [µM] | solubility thermodynamic [3] [µM] | Emax at 16 h, 5 µM (PXR (NR1I2) [4]) [%] | half-life [5] [h] | half-life [6] [h] | INH (Cytochrome P450 1A2) [µM] | INH (Cytochrome P450 2C19) [µM] | INH (Cytochrome P450 2C8) [µM] | INH (Cytochrome P450 2C9) [µM] | INH (Cytochrome P450 2D6) [µM] | INH (Cytochrome P450 3A4) [µM] | pKd [7] | clearance [8] [mL/min/kg] | Vd [9] [L/kg] | AUC(0-inf) [10] [ng·h/mL] | C0 [11] [ng/mL] | half-life [12] [h] | Cmax [13] [ng/mL] | Tmax [14] [h] | also measured |
| --- | --- | --- | --- | --- | --- | --- | --- | --- | --- | --- | --- | --- | --- | --- | --- | --- | --- | --- | --- | --- | --- |
| C[C@H](NS(=O)(=O)c1ccc(-c2sc(C(=O)NC3CCS(=O)(=O)CC3)nc2CC2CC2)c2ccccc12)C(F)(F)F | 99 | < 4 |  | 131 | 2.35 | 1.67 | > 10 | > 10 | > 10 | 2.9 | > 10 | > 10 | < 4.16 | 21.6 | 3.4 | 792 | 470 | 3.8 | 276 | 1.7 | AUC(0-inf) [15]: 1700 ng·h/mL; half-life [16]: 2.6 h; bioavailability [17]: 42.5% |
| C[C@H](NS(=O)(=O)c1ccc(-c2sc(C(=O)NCC(C)(C)O)nc2-c2cccc(F)c2)c(Cl)c1Cl)C(F)(F)F | 69 |  |  | 122 |  |  |  |  |  |  |  |  | < 4.11 |  |  |  |  |  |  |  |  |
| C[C@H](NS(=O)(=O)c1ccc(-c2sc(C(=O)NCC(C)(C)O)nc2CC2CCC2)c(C(F)F)c1)C(F)(F)F | 74 | < 4 |  | 144 | 0.95 | > 3 | > 10 | 3 | > 10 | 2.7 | 5.4 | > 10 | < 4.14 | 46.7 | 5.4 | 198 | 310 | 1.9 | 57 | 1.7 | AUC(0-inf) [15]: 321 ng·h/mL; half-life [16]: 3.2 h; bioavailability [17]: 32.5% |
| C[C@H](NS(=O)(=O)c1ccc(-c2sc(C(=O)NCC(C)(C)O)nc2C2CCCCC2)c(Cl)c1Cl)C(F)(F)F | 60 |  |  | 68 |  |  |  |  |  |  |  |  | < 4.12 |  |  |  |  |  |  |  |  |
| C[C@H](NS(=O)(=O)c1ccc(-c2sc(C(=O)NCC(C)(C)O)nc2CC2CC2)c2ccccc12)C(F)(F)F | 122 | < 4 |  | 188 | 0.9 | > 3 | > 10 | 2 | 3.3 | 0.4 | > 10 | > 10 |  | 40.7 | 29.5 | 415 | 119 | 10.2 | 55 | 0.8 | AUC(0-inf) [15]: 314 ng·h/mL; half-life [16]: 6.9 h; bioavailability [17]: 14.8% |
| CC(C)(C)NS(=O)(=O)c1ccc(-c2sc(C(=O)N3CC4(C3)CS(=O)(=O)C4)nc2CC2CCCCC2)c2ccccc12 |  |  |  |  |  |  |  |  |  |  |  |  | < 4.07 |  |  |  |  |  |  |  |  |
